Key:
rat [1] = test: concentration in plasma after dosing; settings: male
rat [2] = test: concentration in brain after dosing; settings: dosed: Imipramine, 10.0000000000 mg/kg, iv, male, Wistar
rat [3] = test: concentration in plasma after dosing; settings: dosed: Chloridazon, 4.17 mg/kg, oral, male, Sprague-Dawley
rat [4] = test: concentration in plasma after dosing; settings: dosed: Chloridazon, 0.80 mg/kg, iv, male, Sprague-Dawley
rat [5] = test: concentration in plasma after dosing; settings: dosed: Chloridazon, 4.17 mg/kg, oral, male, Sprague-Dawley; remark: listed apart in the source
rat [6] = test: concentration in plasma after dosing; settings: dosed: Chloridazon, 0.80 mg/kg, iv, male, Sprague-Dawley; remark: listed apart in the source
rat [7] = test: concentration in plasma after dosing; settings: dosed: Flufenacet, 1.0 mg/kg, iv, male, Sprague-Dawley
rat [8] = test: concentration in plasma after dosing; settings: dosed: Flufenacet, 5.2 mg/kg, oral, male, Sprague-Dawley
rat [9] = test: concentration in plasma after dosing; settings: dosed: Flufenacet, 5.2 mg/kg, oral, male, Sprague-Dawley; remark: listed apart in the source
rat [10] = test: concentration in plasma after dosing; settings: dosed: Flufenacet, 1.0 mg/kg, iv, male, Sprague-Dawley; remark: listed apart in the source

COc1ccccc1Oc1c(NS(=O)(=O)c2ccc(C(C)(C)C)cc2)nc(-c2ncccn2)nc1OCCO [Bosentan]
concentration in plasma [ng/mL], rat [1], dosed: Bosentan, Wistar
Settings | 0.5 h | 1 h | 2 h | 2 min | 3 h | 4 h | 6 h | 8 h | 10 min | 20 min
1.0000000000 mg/kg, iv | 168 | 128 | 78.9 | 1950 | 61.3 | 38.3 | 18.3 | 10.5 | 323 | 212
10.0000000000 mg/kg, oral | – | 622 | 608 | – | – | 360 | 157 | 60 | – | –

CNCCCN1c2ccccc2CCc2ccccc21 [desmethylimipramine]
rat [1], dosed: Imipramine, 10.0000000000 mg/kg, iv, Wistar
Settings | concentration in plasma [ng/mL]
1 h | 290
2 h | 370
4 h | 300
5 min | 440
10 min | 570

rat [2]
Settings | concentration in brain [µg/g]
0.5 h | 8.62
1 h | 1.08
2 h | 0.86
4 h | 0.72
5 min | 1.44
6 h | 0.69
10 min | 1.8

CCCCNC(=O)NS(=O)(=O)c1ccc(C)cc1 [Tolbutamide]
rat [1], dosed: Tolbutamide
Settings | concentration in plasma [ng/mL]
0.25 h, 20.0000000000 mg/kg, oral, Wistar | 79100
0.5 h, 20.0000000000 mg/kg, oral, Wistar | 84700
1 h, 10.0000000000 mg/kg, iv, Sprague-Dawley | 43400
1 h, 20.0000000000 mg/kg, oral, Wistar | 85900
1.5 h, 10.0000000000 mg/kg, iv, Sprague-Dawley | 38400
2 h, 10.0000000000 mg/kg, iv, Sprague-Dawley | 33400
2 h, 20.0000000000 mg/kg, oral, Wistar | 76400
3 h, 10.0000000000 mg/kg, iv, Sprague-Dawley | 29400
4 h, 10.0000000000 mg/kg, iv, Sprague-Dawley | 25300
4 h, 20.0000000000 mg/kg, oral, Wistar | 52900
5 h, 10.0000000000 mg/kg, iv, Sprague-Dawley | 23100
6 h, 10.0000000000 mg/kg, iv, Sprague-Dawley | 19500
6 h, 20.0000000000 mg/kg, oral, Wistar | 35800
8 h, 20.0000000000 mg/kg, oral, Wistar | 26600
10 min, 10.0000000000 mg/kg, iv, Sprague-Dawley | 64200
12 h, 20.0000000000 mg/kg, oral, Wistar | 17900
20 min, 10.0000000000 mg/kg, iv, Sprague-Dawley | 57100
40 min, 10.0000000000 mg/kg, iv, Sprague-Dawley | 49700

CN(C)CCCN1c2ccccc2CCc2ccccc21 [Imipramine]
concentration in plasma [ng/mL], rat [1], dosed: Imipramine
Settings | 0.1287 h | 0.25 h | 0.5 h | 1 h | 2 h | 4 h | 8 h | 16 h | 24 h | 208 s
10.0000000000 mg/kg, iv, Wistar | 1620 | – | 853 | 719 | 238 | 46.3 | – | – | – | 2340
50.0000000000 mg/kg, oral, Sprague-Dawley | – | 99.1 | 75.7 | 120 | 73.9 | 58.7 | 38.6 | 33.5 | 28.3 | –

rat [2]
Settings | concentration in brain [µg/g]
1 h | 8.5
2 h | 3.6
4 h | 1.61
5 min | 14.7
10 min | 15.1

COC(=O)Nc1nc2ccccc2[nH]1 [Carbendazim]
rat [1], dosed: Carbendazim, 1000.0000000000 mg/kg, oral, Sprague-Dawley
Settings | concentration in plasma [ng/mL]
0.25 h | 10000
0.5 h | 11600
1 h | 14700
2 h | 20200
4 h | 14100
8 h | 4590
20 h | 49.4

Nc1cnn(-c2ccccc2)c(=O)c1Cl [Chloridazon]
rat [1], dosed: Chloridazon, Sprague-Dawley
Settings | concentration in plasma [ng/mL]
0.167 h, 0.80 mg/kg, iv | 54.2
0.25 h, 4.17 mg/kg, oral | 382
0.5 h, 0.80 mg/kg, iv | 144
0.5 h, 4.17 mg/kg, oral | 616
1 h, 0.80 mg/kg, iv | 88
1 h, 4.17 mg/kg, oral | 863
2 h, 0.80 mg/kg, iv | 106
2 h, 4.17 mg/kg, oral | 371
4 h, 0.80 mg/kg, iv | 88.3
4 h, 4.17 mg/kg, oral | 202
5 min, 0.80 mg/kg, iv | 84.5
8 h, 0.80 mg/kg, iv | 0.556
8 h, 4.17 mg/kg, oral | 93.2
24 h, 0.80 mg/kg, iv | 0.0877
24 h, 4.17 mg/kg, oral | 0.329
48 h, 0.80 mg/kg, iv | 0.0282
48 h, 4.17 mg/kg, oral | 0.0714
72 h, 0.80 mg/kg, iv | 0.072

concentration in plasma [ng/mL]
Settings | rat [3] | rat [4] | rat [5] | rat [6]
0.167 h | – | 477 | – | 228
0.25 h | 402 | – | 476 | –
0.5 h | 466 | 349 | 636 | 352
1 h | 863 | 106 | 858 | 102
2 h | 337 | 11.4 | 586 | 23.6
4 h | 64.9 | 1.03 | 158 | 1.66
5 min | – | 404 | – | 371
8 h | 48.8 | 1.72 | 3.03 | 0.333
24 h | 0.604 | 0.115 | 0.913 | 0.0228
48 h | 0.0265 | – | 0.0563 | 0.0394
72 h | 0.0146 | 0.116 | 0.00435 | –

CC(C)N(C(=O)COc1nnc(C(F)(F)F)s1)c1ccc(F)cc1 [Flufenacet]
rat [1], dosed: Flufenacet, Sprague-Dawley
Settings | concentration in plasma [ng/mL]
0.167 h, 1.0 mg/kg, iv | 20.4
0.25 h, 5.2 mg/kg, oral | 0.81
0.5 h, 1.0 mg/kg, iv | 4.05
0.5 h, 5.2 mg/kg, oral | 0.401
1 h, 1.0 mg/kg, iv | 3.72
1 h, 5.2 mg/kg, oral | 0.451
2 h, 1.0 mg/kg, iv | 1.81
2 h, 5.2 mg/kg, oral | 0.188
4 h, 1.0 mg/kg, iv | 2.03
4 h, 5.2 mg/kg, oral | 0.146
5 min, 1.0 mg/kg, iv | 48.6
8 h, 1.0 mg/kg, iv | 2.1
8 h, 5.2 mg/kg, oral | 0.0824
24 h, 1.0 mg/kg, iv | 0.0352
24 h, 5.2 mg/kg, oral | 0.0158
48 h, 1.0 mg/kg, iv | 0.0229
48 h, 5.2 mg/kg, oral | 0.0322
72 h, 1.0 mg/kg, iv | 0.0508
72 h, 5.2 mg/kg, oral | 0.0214

concentration in plasma [ng/mL]
Settings | rat [7] | rat [8] | rat [9] | rat [10]
0.167 h | 52.4 | – | – | 80.7
0.25 h | – | 2.17 | 0.708 | –
0.5 h | 8.65 | 1.32 | 0.41 | 13.7
1 h | 4.31 | 0.462 | 0.274 | 1.82
2 h | 3.42 | 0.22 | 0.256 | 0.896
4 h | 2.88 | 0.135 | 0.199 | 0.328
5 min | 128 | – | – | 195
8 h | 0.0986 | 0.116 | 0.15 | 0.0709
24 h | 0.044 | 0.0179 | 0.0249 | 0.0595
48 h | 0.026 | 0.0128 | 0.017 | 0.0264
72 h | 0.0121 | 0.0208 | 0.0224 | 0.0353

O=C1NC(=O)C(c2ccccc2)(c2ccccc2)N1 [Phenytoin]
rat [1], dosed: Phenytoin, 25.0000000000 mg/kg, iv, duration: 1 min, Sprague-Dawley
Settings | concentration in plasma [ng/mL]
0.25 h | 21500
0.5 h | 15800
0.75 h | 12100
1 h | 8790
1 min | 461000
1.5 h | 4630
2 h | 2480
3 h | 1500
4 h | 831

rat [1], dosed: Phenytoin
Settings | concentration in plasma [ng/mL]
0.25 h, 25.0000000000 mg/kg, oral, Sprague-Dawley | 4120
0.25 h, 40.0000000000 mg/kg, iv, Wistar-derived | 26900
0.5 h, 25.0000000000 mg/kg, oral, Sprague-Dawley | 3370
0.5 h, 40.0000000000 mg/kg, iv, Wistar-derived | 19300
0.75 h, 25.0000000000 mg/kg, oral, Sprague-Dawley | 2620
1 h, 25.0000000000 mg/kg, oral, Sprague-Dawley | 1820
1 h, 40.0000000000 mg/kg, iv, Wistar-derived | 14200
1.5 h, 25.0000000000 mg/kg, oral, Sprague-Dawley | 1200
1.5 h, 40.0000000000 mg/kg, iv, Wistar-derived | 11700
2 h, 25.0000000000 mg/kg, oral, Sprague-Dawley | 885
2 h, 40.0000000000 mg/kg, iv, Wistar-derived | 8970
2.5 h, 40.0000000000 mg/kg, iv, Wistar-derived | 7190
3 h, 25.0000000000 mg/kg, oral, Sprague-Dawley | 1170
3 h, 40.0000000000 mg/kg, iv, Wistar-derived | 4790
3.5 h, 40.0000000000 mg/kg, iv, Wistar-derived | 3020
4 h, 25.0000000000 mg/kg, oral, Sprague-Dawley | 1120
4 h, 40.0000000000 mg/kg, iv, Wistar-derived | 2270
5 min, 40.0000000000 mg/kg, iv, Wistar-derived | 54300
6 h, 25.0000000000 mg/kg, oral, Sprague-Dawley | 771
8 h, 25.0000000000 mg/kg, oral, Sprague-Dawley | 759
10 h, 25.0000000000 mg/kg, oral, Sprague-Dawley | 865
10 min, 40.0000000000 mg/kg, iv, Wistar-derived | 33800
12 h, 25.0000000000 mg/kg, oral, Sprague-Dawley | 495
20 min, 40.0000000000 mg/kg, iv, Wistar-derived | 23200
40 min, 40.0000000000 mg/kg, iv, Wistar-derived | 16800

Reference: EPA's CvTdb concentration-time database (doi:10.1093/toxsci/kfy020)
